Experimental data published in article PMC9030254, “Target Hopping from Protein Kinases to PXR: Identification of Small-Molecule Protein Kinase Inhibitors as Selective Modulators of Pregnane X Receptor from TüKIC Library” (Cells, 2022).

Legend:
Assay in all cases: Kinase profiling
Type in all cases: biochemical
[1] = target: T1, DYRK4 (Homo sapiens, UniProt Q9NR20)
T1 construct: purchased ProQinase (Freiburg, Germany)
T1 sequence (Q9NR20 1-520): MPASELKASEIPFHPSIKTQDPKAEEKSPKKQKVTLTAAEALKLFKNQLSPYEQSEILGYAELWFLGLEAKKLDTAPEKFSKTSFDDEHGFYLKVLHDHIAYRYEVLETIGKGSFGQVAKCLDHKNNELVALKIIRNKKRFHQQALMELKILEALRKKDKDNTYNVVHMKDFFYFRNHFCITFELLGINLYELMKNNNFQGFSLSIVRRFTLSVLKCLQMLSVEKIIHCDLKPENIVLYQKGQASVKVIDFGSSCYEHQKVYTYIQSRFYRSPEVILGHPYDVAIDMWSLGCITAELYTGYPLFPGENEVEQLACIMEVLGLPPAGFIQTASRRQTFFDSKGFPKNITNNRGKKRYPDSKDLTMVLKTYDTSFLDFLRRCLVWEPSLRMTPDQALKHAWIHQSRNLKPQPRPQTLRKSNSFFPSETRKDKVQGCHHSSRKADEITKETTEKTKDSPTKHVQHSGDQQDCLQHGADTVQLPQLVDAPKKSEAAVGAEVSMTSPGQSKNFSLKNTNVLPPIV
Description: (§1) The analysis was performed by ProQinase (Freiburg, Germany).

[2] = target: T2, CDK3/CycE1 (Homo sapiens, UniProt Q00526)
T2 construct: purchased ProQinase (Freiburg, Germany)
Description: as §1

[3] = target: T3, SRC (Homo sapiens, UniProt P12931)
T3 construct: purchased ProQinase (Freiburg, Germany)
Description: as §1

[4] = target: T4, CDK17/p35NCK (Homo sapiens, UniProt Q00537)
T4 construct: purchased ProQinase (Freiburg, Germany)
T4 sequence (Q00537 whole entry): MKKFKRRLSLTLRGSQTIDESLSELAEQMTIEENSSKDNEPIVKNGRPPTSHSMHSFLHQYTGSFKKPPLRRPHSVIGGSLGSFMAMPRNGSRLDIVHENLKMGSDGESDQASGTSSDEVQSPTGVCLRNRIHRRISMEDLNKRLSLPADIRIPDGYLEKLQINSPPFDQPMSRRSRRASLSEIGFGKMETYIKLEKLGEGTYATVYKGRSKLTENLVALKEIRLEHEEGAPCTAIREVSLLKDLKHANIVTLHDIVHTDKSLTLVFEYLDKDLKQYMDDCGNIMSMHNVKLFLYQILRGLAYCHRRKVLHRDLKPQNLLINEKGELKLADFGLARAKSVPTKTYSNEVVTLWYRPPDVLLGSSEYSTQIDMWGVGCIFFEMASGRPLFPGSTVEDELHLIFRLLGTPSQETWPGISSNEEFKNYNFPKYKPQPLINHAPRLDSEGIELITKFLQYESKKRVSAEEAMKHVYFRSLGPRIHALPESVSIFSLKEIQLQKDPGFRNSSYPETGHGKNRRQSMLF
T4 sequence (Q15078 whole entry partner): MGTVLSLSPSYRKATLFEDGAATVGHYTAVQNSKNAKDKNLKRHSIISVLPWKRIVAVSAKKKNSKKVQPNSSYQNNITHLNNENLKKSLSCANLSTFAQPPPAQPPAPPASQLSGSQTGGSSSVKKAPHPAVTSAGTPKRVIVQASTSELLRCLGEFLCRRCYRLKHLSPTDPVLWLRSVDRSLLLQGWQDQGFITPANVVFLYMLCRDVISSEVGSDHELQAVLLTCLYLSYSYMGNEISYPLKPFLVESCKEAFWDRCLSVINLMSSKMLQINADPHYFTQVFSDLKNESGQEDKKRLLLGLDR
Description: as §1

[5] = target: T5, PDGFRbeta (Homo sapiens, UniProt P09619)
T5 construct: purchased ProQinase (Freiburg, Germany)
Description: as §1

[6] = target: T6, TIE2 (Homo sapiens, UniProt Q02763)
T6 construct: purchased ProQinase (Freiburg, Germany)
Description: as §1

[7] = target: T7, PRK2 (Homo sapiens, UniProt Q16513)
T7 construct: purchased ProQinase (Freiburg, Germany)
T7 sequence (Q16513 whole entry): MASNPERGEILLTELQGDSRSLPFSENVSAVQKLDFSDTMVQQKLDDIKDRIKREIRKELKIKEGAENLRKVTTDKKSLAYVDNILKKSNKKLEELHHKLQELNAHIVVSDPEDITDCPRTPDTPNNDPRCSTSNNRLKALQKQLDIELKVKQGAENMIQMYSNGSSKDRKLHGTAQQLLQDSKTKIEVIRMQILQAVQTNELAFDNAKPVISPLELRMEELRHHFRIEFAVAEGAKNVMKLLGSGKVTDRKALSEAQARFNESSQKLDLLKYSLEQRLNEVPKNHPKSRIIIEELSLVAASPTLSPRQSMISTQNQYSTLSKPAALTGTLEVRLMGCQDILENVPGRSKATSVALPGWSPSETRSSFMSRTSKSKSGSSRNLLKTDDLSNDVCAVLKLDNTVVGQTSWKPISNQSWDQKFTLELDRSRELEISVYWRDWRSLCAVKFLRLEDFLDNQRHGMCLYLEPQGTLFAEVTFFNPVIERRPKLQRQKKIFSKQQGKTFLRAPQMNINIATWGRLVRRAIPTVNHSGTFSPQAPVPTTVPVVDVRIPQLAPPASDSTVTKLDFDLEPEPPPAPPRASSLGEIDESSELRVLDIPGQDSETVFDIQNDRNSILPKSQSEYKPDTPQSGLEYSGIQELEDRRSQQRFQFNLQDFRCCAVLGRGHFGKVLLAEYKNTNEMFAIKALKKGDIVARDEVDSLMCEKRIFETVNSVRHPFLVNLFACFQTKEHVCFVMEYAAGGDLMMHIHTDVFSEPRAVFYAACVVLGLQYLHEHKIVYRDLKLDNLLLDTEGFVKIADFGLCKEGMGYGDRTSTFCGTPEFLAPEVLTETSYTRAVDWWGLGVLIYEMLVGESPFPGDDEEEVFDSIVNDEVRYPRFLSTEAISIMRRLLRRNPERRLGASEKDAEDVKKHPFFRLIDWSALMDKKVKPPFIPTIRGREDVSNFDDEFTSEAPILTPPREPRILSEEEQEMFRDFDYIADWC
Description: as §1

[8] = target: T8, HIPK1 (Homo sapiens, UniProt Q86Z02)
T8 construct: purchased ProQinase (Freiburg, Germany)
T8 sequence (Q86Z02 whole entry): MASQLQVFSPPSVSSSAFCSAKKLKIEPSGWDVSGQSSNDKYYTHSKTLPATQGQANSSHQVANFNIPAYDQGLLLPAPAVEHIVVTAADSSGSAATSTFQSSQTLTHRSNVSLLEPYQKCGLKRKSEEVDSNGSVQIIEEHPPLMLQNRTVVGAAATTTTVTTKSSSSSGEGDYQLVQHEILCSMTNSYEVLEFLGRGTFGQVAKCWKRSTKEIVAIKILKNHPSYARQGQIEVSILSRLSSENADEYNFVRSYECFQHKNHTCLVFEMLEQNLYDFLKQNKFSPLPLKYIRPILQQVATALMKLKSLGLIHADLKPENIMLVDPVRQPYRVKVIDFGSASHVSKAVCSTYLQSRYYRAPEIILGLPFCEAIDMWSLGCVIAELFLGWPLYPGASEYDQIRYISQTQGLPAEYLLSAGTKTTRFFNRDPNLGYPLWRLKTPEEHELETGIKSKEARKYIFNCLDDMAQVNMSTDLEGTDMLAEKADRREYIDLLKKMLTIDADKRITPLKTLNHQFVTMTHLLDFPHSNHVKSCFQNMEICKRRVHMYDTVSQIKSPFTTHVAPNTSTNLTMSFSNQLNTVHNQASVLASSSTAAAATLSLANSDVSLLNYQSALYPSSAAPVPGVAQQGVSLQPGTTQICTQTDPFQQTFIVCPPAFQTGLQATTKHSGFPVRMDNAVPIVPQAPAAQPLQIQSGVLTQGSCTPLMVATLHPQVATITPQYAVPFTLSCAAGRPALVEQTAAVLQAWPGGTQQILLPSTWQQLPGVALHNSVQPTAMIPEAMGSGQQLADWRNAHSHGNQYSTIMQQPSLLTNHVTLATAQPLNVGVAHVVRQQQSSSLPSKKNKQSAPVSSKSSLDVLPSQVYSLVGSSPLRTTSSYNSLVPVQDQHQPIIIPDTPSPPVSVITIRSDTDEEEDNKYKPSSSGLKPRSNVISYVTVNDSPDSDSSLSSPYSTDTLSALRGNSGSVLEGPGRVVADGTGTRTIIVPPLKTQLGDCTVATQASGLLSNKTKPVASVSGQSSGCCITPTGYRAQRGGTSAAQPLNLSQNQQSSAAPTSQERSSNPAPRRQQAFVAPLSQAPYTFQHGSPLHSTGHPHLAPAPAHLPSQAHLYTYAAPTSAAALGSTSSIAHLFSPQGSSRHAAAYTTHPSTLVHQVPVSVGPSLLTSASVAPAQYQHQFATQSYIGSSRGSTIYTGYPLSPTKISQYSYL
Description: as §1

[9] = target: T9, EPHA2 (Homo sapiens, UniProt P29317)
T9 construct: purchased ProQinase (Freiburg, Germany)
Description: as §1

[10] = target: T10, ERK2 (Homo sapiens, UniProt P28482)
T10 construct: purchased ProQinase (Freiburg, Germany)
T10 sequence (P28482 whole entry): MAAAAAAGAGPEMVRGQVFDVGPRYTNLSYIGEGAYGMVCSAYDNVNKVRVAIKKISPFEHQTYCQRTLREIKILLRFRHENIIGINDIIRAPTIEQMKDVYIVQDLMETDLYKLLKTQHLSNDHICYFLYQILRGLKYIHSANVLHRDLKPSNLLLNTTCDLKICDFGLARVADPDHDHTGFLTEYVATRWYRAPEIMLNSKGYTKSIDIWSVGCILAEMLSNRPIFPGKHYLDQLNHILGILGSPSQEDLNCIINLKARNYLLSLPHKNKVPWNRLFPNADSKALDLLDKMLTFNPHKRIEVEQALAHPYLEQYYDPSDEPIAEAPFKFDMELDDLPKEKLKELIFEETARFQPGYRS
Description: as §1

[11] = target: T11, GRK7 (Homo sapiens, UniProt Q8WTQ7)
T11 construct: purchased ProQinase (Freiburg, Germany)
T11 sequence (Q8WTQ7 1-553): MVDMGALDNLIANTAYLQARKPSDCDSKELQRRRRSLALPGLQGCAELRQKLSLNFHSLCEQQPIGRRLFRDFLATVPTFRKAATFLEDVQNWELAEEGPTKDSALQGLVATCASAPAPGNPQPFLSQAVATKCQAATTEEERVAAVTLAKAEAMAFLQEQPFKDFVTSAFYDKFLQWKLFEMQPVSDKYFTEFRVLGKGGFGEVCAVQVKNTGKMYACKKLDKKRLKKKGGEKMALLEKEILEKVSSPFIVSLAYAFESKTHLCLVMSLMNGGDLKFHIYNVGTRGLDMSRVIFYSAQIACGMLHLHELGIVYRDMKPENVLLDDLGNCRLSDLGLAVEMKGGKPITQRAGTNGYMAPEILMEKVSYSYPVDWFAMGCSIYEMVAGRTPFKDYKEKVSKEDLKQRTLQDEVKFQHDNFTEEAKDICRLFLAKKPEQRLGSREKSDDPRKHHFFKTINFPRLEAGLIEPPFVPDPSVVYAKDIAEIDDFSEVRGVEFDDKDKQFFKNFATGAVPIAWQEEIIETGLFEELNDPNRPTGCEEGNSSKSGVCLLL
Description: as §1

[12] = target: T12, DNAPK (Homo sapiens, UniProt P78527)
T12 construct: purchased ProQinase (Freiburg, Germany)
Description: as §1

[13] = target: T13, GRK2 (Homo sapiens, UniProt P25098)
T13 construct: purchased ProQinase (Freiburg, Germany)
T13 sequence (P25098 1-689): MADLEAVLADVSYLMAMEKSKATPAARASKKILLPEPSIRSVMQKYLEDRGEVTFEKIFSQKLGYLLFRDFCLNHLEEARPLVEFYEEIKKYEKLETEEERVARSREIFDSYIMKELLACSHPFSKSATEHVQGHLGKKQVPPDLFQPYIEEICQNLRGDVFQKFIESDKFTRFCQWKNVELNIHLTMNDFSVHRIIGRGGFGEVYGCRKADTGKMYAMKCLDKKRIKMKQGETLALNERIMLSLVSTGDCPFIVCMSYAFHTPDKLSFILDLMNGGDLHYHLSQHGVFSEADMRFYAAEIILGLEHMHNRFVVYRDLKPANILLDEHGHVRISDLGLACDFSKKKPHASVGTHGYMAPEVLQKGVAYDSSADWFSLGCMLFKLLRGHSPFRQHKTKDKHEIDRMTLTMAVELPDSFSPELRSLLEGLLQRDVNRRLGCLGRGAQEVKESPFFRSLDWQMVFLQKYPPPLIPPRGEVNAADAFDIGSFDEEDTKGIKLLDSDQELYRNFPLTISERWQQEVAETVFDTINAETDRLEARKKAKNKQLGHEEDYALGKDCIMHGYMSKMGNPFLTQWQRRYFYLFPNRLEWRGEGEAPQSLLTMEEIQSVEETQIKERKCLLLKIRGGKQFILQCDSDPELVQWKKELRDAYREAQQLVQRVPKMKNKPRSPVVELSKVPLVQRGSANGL
Description: as §1

[14] = target: T14, CAMK2A (Homo sapiens, UniProt Q9UQM7)
T14 construct: purchased ProQinase (Freiburg, Germany)
T14 sequence (Q9UQM7 whole entry): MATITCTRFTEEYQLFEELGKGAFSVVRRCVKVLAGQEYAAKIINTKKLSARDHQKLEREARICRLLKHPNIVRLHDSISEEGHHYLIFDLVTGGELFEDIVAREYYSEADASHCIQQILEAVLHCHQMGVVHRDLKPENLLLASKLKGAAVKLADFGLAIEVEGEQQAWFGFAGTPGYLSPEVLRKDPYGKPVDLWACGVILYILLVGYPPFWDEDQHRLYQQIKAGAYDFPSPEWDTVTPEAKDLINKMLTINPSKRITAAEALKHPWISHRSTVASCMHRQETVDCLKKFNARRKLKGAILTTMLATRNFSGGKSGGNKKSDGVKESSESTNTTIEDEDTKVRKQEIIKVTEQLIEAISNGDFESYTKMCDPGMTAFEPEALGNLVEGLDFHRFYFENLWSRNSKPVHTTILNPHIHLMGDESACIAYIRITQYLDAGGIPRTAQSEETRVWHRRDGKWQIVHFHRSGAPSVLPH
Description: as §1

[15] = target: T15, RPS6KA4 (Homo sapiens, UniProt O75676)
T15 construct: purchased ProQinase (Freiburg, Germany)
Description: as §1

[16] = target: T16, PKCbeta1 (Homo sapiens, UniProt P05771)
T16 construct: purchased ProQinase (Freiburg, Germany)
T16 sequence (P05771 whole entry): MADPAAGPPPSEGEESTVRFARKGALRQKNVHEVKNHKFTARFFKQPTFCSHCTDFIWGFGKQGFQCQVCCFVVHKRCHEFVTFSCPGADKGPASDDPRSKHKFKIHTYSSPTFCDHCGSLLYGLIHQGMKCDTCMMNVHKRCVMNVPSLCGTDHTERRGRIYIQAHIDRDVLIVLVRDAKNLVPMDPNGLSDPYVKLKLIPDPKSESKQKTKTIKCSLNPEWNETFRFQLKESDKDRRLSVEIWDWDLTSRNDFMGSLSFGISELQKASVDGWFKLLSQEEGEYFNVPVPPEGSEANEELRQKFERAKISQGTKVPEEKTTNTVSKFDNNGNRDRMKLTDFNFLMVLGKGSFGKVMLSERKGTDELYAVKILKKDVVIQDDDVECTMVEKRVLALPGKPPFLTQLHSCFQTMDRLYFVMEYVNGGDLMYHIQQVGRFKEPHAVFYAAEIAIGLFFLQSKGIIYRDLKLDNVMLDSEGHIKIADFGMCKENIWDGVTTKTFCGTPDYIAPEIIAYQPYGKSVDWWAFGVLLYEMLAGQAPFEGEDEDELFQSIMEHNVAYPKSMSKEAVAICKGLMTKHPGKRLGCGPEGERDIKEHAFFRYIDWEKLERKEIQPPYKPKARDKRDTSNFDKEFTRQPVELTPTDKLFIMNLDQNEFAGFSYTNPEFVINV
Description: as §1

Structure (SMILES)	Residual activity ([1]; 1.0E-05 M)	Residual activity ([1]; 1.0E-06 M)	Residual activity ([2]; 1.0E-05 M)	Residual activity ([2]; 1.0E-06 M)	Residual activity ([3]; 1.0E-05 M)	Residual activity ([3]; 1.0E-06 M)	Residual activity ([4]; 1.0E-05 M)	Residual activity ([4]; 1.0E-06 M)	Residual activity ([5]; 1.0E-05 M)	Residual activity ([5]; 1.0E-06 M)	Residual activity ([6]; 1.0E-05 M)	Residual activity ([6]; 1.0E-06 M)	Residual activity ([7]; 1.0E-05 M)	Residual activity ([7]; 1.0E-06 M)	Residual activity ([8]; 1.0E-05 M)	Residual activity ([8]; 1.0E-06 M)	Residual activity ([9]; 1.0E-05 M)	Residual activity ([9]; 1.0E-06 M)	Residual activity ([10]; 1.0E-05 M)	Residual activity ([10]; 1.0E-06 M)	also measured
O=C(Cc1ccccc1)Nc1ccc(F)c(Nc2ccc3c(c2)CCCCC3=O)c1 [Compound 100]	94 % of control	98 % of control	80 % of control	90 % of control	105 % of control	117 % of control	84 % of control	102 % of control	99 % of control	100 % of control	66 % of control	96 % of control	97 % of control	94 % of control	91 % of control	100 % of control	94 % of control	116 % of control	90 % of control	101 % of control	Residual activity ([11]; 1.0E-05 M): 123 % of control; Residual activity ([11]; 1.0E-06 M): 121 % of control; Residual activity ([12]; 1.0E-05 M): 97 % of control; Residual activity ([12]; 1.0E-06 M): 95 % of control; Residual activity ([13]; 1.0E-05 M): 97 % of control; Residual activity ([13]; 1.0E-06 M): 97 % of control; Residual activity ([14]; 1.0E-05 M): 94 % of control; Residual activity ([14]; 1.0E-06 M): 96 % of control; Residual activity ([15]; 1.0E-05 M): 93 % of control; Residual activity ([15]; 1.0E-06 M): 93 % of control; Residual activity ([16]; 1.0E-05 M): 92 % of control; Residual activity ([16]; 1.0E-06 M): 91 % of control
O=C(Nc1ccc(F)c(Nc2ccc3c(c2)CCCCC3=O)c1)c1cccc(F)c1 [Compound 109]	87 % of control	89 % of control	82 % of control	91 % of control	100 % of control	107 % of control	92 % of control	109 % of control	99 % of control	98 % of control	78 % of control	87 % of control	96 % of control	90 % of control	93 % of control	90 % of control	107 % of control	105 % of control	93 % of control	95 % of control	Residual activity ([11]; 1.0E-05 M): 116 % of control; Residual activity ([11]; 1.0E-06 M): 108 % of control; Residual activity ([12]; 1.0E-05 M): 106 % of control; Residual activity ([12]; 1.0E-06 M): 96 % of control; Residual activity ([13]; 1.0E-05 M): 88 % of control; Residual activity ([13]; 1.0E-06 M): 84 % of control; Residual activity ([14]; 1.0E-05 M): 91 % of control; Residual activity ([14]; 1.0E-06 M): 95 % of control; Residual activity ([15]; 1.0E-05 M): 95 % of control; Residual activity ([15]; 1.0E-06 M): 95 % of control; Residual activity ([16]; 1.0E-05 M): 87 % of control; Residual activity ([16]; 1.0E-06 M): 93 % of control
